Measurements as given in patent US20220227745A1, “Compounds For Modulating FXR” (NANJING RUIJIE PHARMA TECH CO., LTD., priority 2019, published 2022).

Molecular target: T1, FXR LBD, GST (Homo sapiens, UniProt Q96RI1)
T1 construct: FXR LBD, GST; purchased Invitrogen PV4834
T1 sequence (Q96RI1 262-486 limits assumed): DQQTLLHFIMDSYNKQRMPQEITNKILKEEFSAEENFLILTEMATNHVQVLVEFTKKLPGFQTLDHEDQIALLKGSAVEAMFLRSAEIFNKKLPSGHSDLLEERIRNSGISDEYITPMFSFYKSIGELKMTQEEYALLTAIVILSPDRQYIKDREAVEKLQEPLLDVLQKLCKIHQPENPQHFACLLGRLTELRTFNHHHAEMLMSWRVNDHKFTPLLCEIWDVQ
Test: FXR Binding Assay (TR-FRET, Fluorescein-SRC2-2 coactivator peptide)
Conditions: for Emax / Pct Effect (Emax %): % Activity relative to positive control; for Emax: read-out: Pct Effect (Emax %); for EC50: TR-FRET FXR LBD coactivator recruitment
Protocol: The interaction between the present compounds and FXR are evaluated by Time-Resolved Fluorescence Resonance Energy Transfer (TR-FRET) competition assay. FRET describes a radiation-free energy transfer between two chromophores: a donor fluorophore in its excited state can transfer energy to an acceptor fluorophore in close proximity (typically <10 nm). In contrast to standard FRET, TR-FRET unites time-resolved fluorescence (TRF) and the FRET principle, TRF use a long-lifetime lanthanide chelate as the donor species, while lanthanide chelates are unique in that their excited-state lifetime can be on the order of a millisecond or longer. Suitable neighbors for FRET are known in the art and can be obtained.
The assay was performed in following steps: first, prepared a) 1 mM compounds (100×) in DMSO; b) reaction buffer containing 1× buffer G with 10 mM DTT; c) 4×FXR LBD (20 nM) in 1× chilled buffer G. Second, performed 3-fold serial dilution of 1 mM test compounds using DMSO from 1 mM, 10 doses in a 96-well plate (249944, Nunc). Then, used complete buffer G to dilute each 100× compounds serial dilution to 2×. Third, added 10 μl 2× compound serial dilution into 384-well plate (3677, Corning). Then, added 5 μl FXR LBD into the assay plate. Prepared a solution containing 2 μM fluorescein-SRC2-2 (4×) and 20 nM Tb anti-GST antibody (4×) in buffer G at room temperature and started the reaction by adding 5 μl the above solution into each well of the assay plate. Centrifuged the assay plates at 1000 g for 1 min and then incubated at room temperature for lhr protected from light. Finally, the plate was read at wavelengths of 520 nm and 495 nm on Envision 2104 plate reader (PerkinElmer).
A ratio (Ratio520 nm/495 nm−Ratiobackground) was calculated for each well. The activity ratio was calculated as follow: […]
Ratiopositive: The average ratio for the positive control across the plate.
Ratiovehicle: The average ratio for negative controls across the plate.
EC50 was calculated by fitting % Activity values and log of compound concentrations to nonlinear regression (dose response-variable slope) with GraphPad 5.0.
X: log of compound concentration.

| Compound | Emax [%] | EC50 [nM] | Pct Effect (Emax %) [%] |
| --- | --- | --- | --- |
| Cn1cc(C(=O)O)c2ccc(N3CCN(CCc4c(-c5ccccc5Cl)noc4C4CC4)CC3)cc21 [Example I9, 6-(4-(2-(3-(2-chlorophenyl)-5-cyclopropylisoxazol-4-yl)ethyl)piperazin-1-yl)-1-methyl-1H-indole-3-carboxylic Acid] | 206 | 1220 |  |
| Cn1cc(C(=O)O)c2ccc(N3CCN(CCc4c(-c5c(F)cccc5F)noc4C4CC4)CC3)cc21 [Example I11, 6-(4-(2-(5-cyclopropyl-3-(2,6-difluorophenyl)isoxazol-4-yl)ethyl)piperazin-1-yl)-1-methyl-1H-indole-3-carboxylic Acid] |  | 1640 |  |
| CC1CN(CCc2c(-c3c(Cl)cccc3Cl)noc2C2CC2)CCN1c1ccc(CC(=O)O)cc1 (centres unmarked) [Example I13, 2-(4-(4-(2-(5-cyclopropyl-3-(2,6-dichlorophenyl)isoxazol-4-yl)ethyl)-2-methylpiperazin-1-yl)phenyl)acetic Acid] | 34.9 | 1530 |  |
| Cn1cc(C(=O)O)c2ccc(N3CCN(CCc4c(-c5ccc(Cl)cc5Cl)noc4C4CC4)CC3)cc21 [Example I16, 6-(4-(2-(5-cyclopropyl-3-(2,4-dichlorophenyl)isoxazol-4-yl)ethyl)piperazin-1-yl)-1-methyl-1H-indole-3-carboxylic Acid] |  | > 10000 |  |
| Cn1cc(C(=O)O)c2ccc(N3CCN(CCc4c(-c5ccccc5F)noc4C4CC4)CC3)cc21 [Example I19, 6-(4-(2-(5-cyclopropyl-3-(2-fluorophenyl)isoxazol-4-yl)ethyl)piperazin-1-yl)-1-methyl-1H-indole-3-carboxylic Acid] | 104 | 4360 |  |
| CC(Cc1c(-c2c(Cl)cccc2Cl)noc1C1CC1)N1CCN(c2ccc3c(C(=O)O)cn(C)c3c2)CC1 (centres unmarked) [Example I23, 6-(4-(1-(5-cyclopropyl-3-(2,6-dichlorophenyl)isoxazol-4-yl)propan-2-yl)piperazin-1-yl)-1-methyl-1H-indole-3-carboxylic Acid] | 35.7 | 1370 |  |
| Cn1cc(C(=O)O)c2ccc(N3C[C@H]4C[C@@H]3CN4CCc3c(-c4c(Cl)cccc4Cl)noc3C3CC3)cc21 [Example I28, 6-((1R,4R)-5-(2-(5-cyclopropyl-3-(2,6-dichlorophenyl)isoxazol-4-yl)ethyl)-2,5-diazabicyclo[2.2.1]heptan-2-yl)-1-methyl-1H-indole-3-carboxylic Acid] | 132 | 1340 |  |
| Cn1cc(C(=O)O)c2ccc(N3CC4CC3CN4CCc3c(-c4c(Cl)cccc4Cl)noc3C3CC3)cc21 (centres unmarked) [Example I29, 6-(5-(2-(5-cyclopropyl-3-(2,6-dichlorophenyl)isoxazol-4-yl)ethyl)-2,5-diazabicyclo[2.2.1]heptan-2-yl)-1-methyl-1H-indole-3-carboxylic Acid] |  | 3810 | 68.08 |
| O=C(O)c1cc(F)c2nc(N3C4CCC3CN(CCc3c(-c5c(Cl)cccc5Cl)noc3C3CC3)C4)sc2c1 [Example I31, 2-(3-(2-(5-cyclopropyl-3-(2,6-dichlorophenyl)isoxazol-4-yl)ethyl)-3,8-diazabicyclo[3.2.1]octan-8-yl)-4-fluorobenzo[d]thiazole-6-carboxylic Acid] | 45.1 | 41 |  |
| O=C(O)c1cc(F)c2nc(N3C4CCC3CN(CCc3c(-c5ccccc5OC(F)(F)F)noc3C3CC3)C4)sc2c1 [Example I32, 2-(3-(2-(5-cyclopropyl-3-(2-(trifluoromethoxy)phenyl)isoxazol-4-yl)ethyl)-3,8-diazabicyclo[3.2.1]octan-8-yl)-4-fluorobenzo[d]thiazole-6-carboxylic Acid] | 47.7 | 129 |  |
| O=C(O)c1ccc2nc(N3C4CCC3CN(CCc3c(-c5c(Cl)cccc5Cl)noc3C3CC3)C4)sc2c1 [Example I33, 2-(3-(2-(5-cyclopropyl-3-(2,6-dichlorophenyl)isoxazol-4-yl)ethyl)-3,8-diazabicyclo[3.2.1]octan-8-yl)benzo[d]thiazole-6-carboxylic Acid] | 43.3 | 97 |  |
| O=C(O)c1ccc2nc(N3C4CCC3CN(CCc3c(-c5ccccc5OC(F)(F)F)noc3C3CC3)C4)sc2c1 [Example I34, 2-(3-(2-(5-cyclopropyl-3-(2-(trifluoromethoxy)phenyl)isoxazol-4-yl)ethyl)-3,8-diazabicyclo[3.2.1]octan-8-yl)benzo[d]thiazole-6-carboxylic Acid] | 41.5 | 236 |  |
| C[C@H]1CN(CCc2c(-c3c(Cl)cccc3Cl)noc2C2CC2)CCN1c1ccc2c(C(=O)O)cn(C)c2c1 [Example I39, (S)-6-(4-(2-(5-cyclopropyl-3-(2,6-dichlorophenyl)isoxazol-4-yl)ethyl)-2-methylpiperazin-1-yl)-1-methyl-1H-indole-3-carboxylic Acid] | 129 | 150 |  |
| Cn1cc(C(=O)O)c2ccc(N3CC4CCC(C3)N4CCc3c(-c4c(Cl)cccc4Cl)noc3C3CC3)cc21 [Example I41, 6-(8-(2-(5-cyclopropyl-3-(2,6-dichlorophenyl)isoxazol-4-yl)ethyl)-3,8-diazabicyclo[3.2.1]octan-3-yl)-1-methyl-1H-indole-3-carboxylic Acid] | 158 | 200 |  |
| C[C@@H]1CN(CCc2c(-c3c(Cl)cccc3Cl)noc2C2CC2)C[C@H](C)N1c1ccc2c(C(=O)O)cn(C)c2c1 [Example I43, 6-((2S,6R)-4-(2-(5-cyclopropyl-3-(2,6-dichlorophenyl)isoxazol-4-yl)ethyl)-2,6-dimethylpiperazin-1-yl)-1-methyl-1H-indole-3-carboxylic Acid] | 110 | 1400 |  |
| C[C@@H]1CN(CCc2c(-c3c(Cl)cccc3Cl)noc2C2CC2)C[C@@H](C)N1c1ccc2c(C(=O)O)cn(C)c2c1 [Example I44, 6-((2R,6R)-4-(2-(5-cyclopropyl-3-(2,6-dichlorophenyl)isoxazol-4-yl)ethyl)-2,6-dimethylpiperazin-1-yl)-1-methyl-1H-indole-3-carboxylic Acid] | 73.5 | 401 |  |
| Cn1cc(C(=O)O)c2c(F)cc(N3CCN(CCc4c(-c5c(Cl)cccc5Cl)noc4C4CC4)CC3)cc21 [Example I46, 6-(4-(2-(5-cyclopropyl-3-(2,6-dichlorophenyl)isoxazol-4-yl)ethyl)piperazin-1-yl)-4-fluoro-1-methyl-1H-indole-3-carboxylic Acid] | 168 | 149 |  |
| Cn1cc(C(=O)O)c2ccc(N3CC4CC3CN4CCc3c(-c4c(Cl)cccc4Cl)noc3C3CC3)cc21 (centres unmarked) [Example I48, 6-(5-(2-(5-cyclopropyl-3-(2,6-dichlorophenyl)isoxazol-4-yl)ethyl)-2,5-diazabicyclo[2.2.1]heptan-2-yl)-1-methyl-1H-indole-3-carboxylic Acid] |  | 1720 | 124.90 |
| Cn1cc(C(=O)O)c2ccc(N3CC4CC(C3)N4CCc3c(-c4c(Cl)cccc4Cl)noc3C3CC3)cc21 [Example I49, 6-(6-(2-(5-cyclopropyl-3-(2,6-dichlorophenyl)isoxazol-4-yl)ethyl)-3,6-diazabicyclo[3.1.1]heptan-3-yl)-1-methyl-1H-indole-3-carboxylic Acid] |  | > 10000 |  |
| CC1CN(CCc2c(-c3c(Cl)cccc3Cl)noc2C2CC2)CCN1c1ccc2nc(C(=O)O)ccc2c1 (centres unmarked) [Example I51, 6-(4-(2-(5-cyclopropyl-3-(2,6-dichlorophenyl)isoxazol-4-yl)ethyl)-2-methylpiperazin-1-yl)quinoline-2-carboxylic Acid] | 96.5 | 74 |  |
| CC1CN(c2ccc3nc(C(=O)O)ccc3c2)CCN1CCc1c(-c2c(Cl)cccc2Cl)noc1C1CC1 (centres unmarked) [Example I52, 6-(4-(2-(5-cyclopropyl-3-(2,6-dichlorophenyl)isoxazol-4-yl)ethyl)-3-methylpiperazin-1-yl)quinoline-2-carboxylic Acid] | 121 | 209 |  |
| COC(=O)c1ccc2cc(N3CCN(CCc4c(-c5c(Cl)cccc5Cl)noc4C4CC4)C(C)C3)ccc2n1 (centres unmarked) [Example I53, methyl 6-(4-(2-(5-cyclopropyl-3-(2,6-dichlorophenyl)isoxazol-4-yl)ethyl)-3-methylpiperazin-1-yl)quinoline-2-carboxylate] | 68.4 | 436 |  |
